Measured values as given in PubChem BioAssay AID1919004 (Molecular Pharmacology Branch, DTP, NCI, 2023).
Values joined by “and” are separate entries in the source; they are usually repeats but may differ in a detail not shown here. Equal values may be shown once. Values belong to the molecule of their own block, whether it stands above or below them.

Test system: 883617-216-R-J1-PDC complex spheroids, growth, % test/control
Test: Anticancer human tumor 883617-216-R-J1-PDC patient-derived bladder carcinoma cell line growth inhibition [AhR]
Conditions: for viability, T/C: stronger effect = lower value
Method in brief: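 Complex tumor spheroids co-cultured with HUVEC and human MSC stroma; AhR antagonists tested in combination with standard-of-care and investigational agents. Top concentration at or near clinical Cmax (else 10 microM), half-log dilutions; growth expressed as percent test/control.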

[1] = curve of first compound, second compound 0.1 µM
[2] = curve of first compound, second compound 0.316 µM
[3] = curve of first compound, second compound 1 µM
[4] = curve of first compound, second compound 3.16 µM
[5] = curve of first compound, second compound 10 µM
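Further: exposure lasted 7 days after dosing on day 3 of spheroid growth.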

IC50 [1]: > 10000 nM | IC50 [2]: > 10000 nM | IC50 [3]: > 10000 nM | IC50 [4]: > 10000 nM | IC50 [5]: > 10000 nM
SMILES: CC1COCCN1c1cc(C2(S(C)(=N)=O)CC2)nc(-c2ccnc3[nH]ccc23)n1 (stereo not drawn) + Cc1ccccc1N=Nc1ccc(NC(=O)c2ccnn2C)c(C)c1
viability, T/C (second compound 0.1 µM, first compound 0.0316 µM): 97.9% | viability, T/C (second compound 0.1 µM, first compound 0.1 µM): 97% | viability, T/C (second compound 0.1 µM, first compound 0.316 µM): 88% | viability, T/C (second compound 0.1 µM, first compound 1 µM): 84.9% | viability, T/C (second compound 0.1 µM, first compound 3.16 µM): 70.9% | viability, T/C (second compound 0.1 µM, first compound 10 µM): 54.6% | viability, T/C (second compound 0.316 µM, first compound 0.0316 µM): 90.5% | viability, T/C (second compound 0.316 µM, first compound 0.1 µM): 93.6% | viability, T/C (second compound 0.316 µM, first compound 0.316 µM): 81.2% | viability, T/C (second compound 0.316 µM, first compound 1 µM): 89.9% | viability, T/C (second compound 0.316 µM, first compound 3.16 µM): 82% | viability, T/C (second compound 0.316 µM, first compound 10 µM): 55.4% | viability, T/C (second compound 1 µM, first compound 0.0316 µM): 87.7% | viability, T/C (second compound 1 µM, first compound 0.1 µM): 90.9% | viability, T/C (second compound 1 µM, first compound 0.316 µM): 82.4% | viability, T/C (second compound 1 µM, first compound 1 µM): 84.8% | viability, T/C (second compound 1 µM, first compound 3.16 µM): 77.1% | viability, T/C (second compound 1 µM, first compound 10 µM): 54.8% | viability, T/C (second compound 3.16 µM, first compound 0.0316 µM): 86.5% | viability, T/C (second compound 3.16 µM, first compound 0.1 µM): 77.6% | viability, T/C (second compound 3.16 µM, first compound 0.316 µM): 75% | viability, T/C (second compound 3.16 µM, first compound 1 µM): 75% | viability, T/C (second compound 3.16 µM, first compound 3.16 µM): 61.5% | viability, T/C (second compound 3.16 µM, first compound 10 µM): 58.8% | viability, T/C (second compound 10 µM, first compound 0.0316 µM): 75.7% | viability, T/C (second compound 10 µM, first compound 0.1 µM): 81.5% | viability, T/C (second compound 10 µM, first compound 0.316 µM): 82% | viability, T/C (second compound 10 µM, first compound 1 µM): 77.3% | viability, T/C (second compound 10 µM, first compound 3.16 µM): 73.5% | viability, T/C (second compound 10 µM, first compound 10 µM): 57.1%

IC50 [1]: 1.86 nM | IC50 [2]: 2.2 nM | IC50 [3]: 2.21 nM | IC50 [4]: 1.59 nM | IC50 [5]: 1.99 nM
SMILES: CC(C)CC(NC(=O)C(Cc1ccccc1)NC(=O)c1cnccn1)B(O)O (stereo not drawn) + CC(CO)NC(=O)c1cc(-c2ccc(Cl)cc2)nn(-c2cnn(C)c2)c1=O
viability, T/C (second compound 0.1 µM, first compound 0.000949 µM): 106% | viability, T/C (second compound 0.1 µM, first compound 0.003 µM): 10.4% | viability, T/C (second compound 0.1 µM, first compound 0.00949 µM): 2.11% | viability, T/C (second compound 0.1 µM, first compound 0.03 µM): 2.02% | viability, T/C (second compound 0.1 µM, first compound 0.0949 µM): 1.92% | viability, T/C (second compound 0.1 µM, first compound 0.3 µM): 3.28% | viability, T/C (second compound 0.316 µM, first compound 0.000949 µM): 123% | viability, T/C (second compound 0.316 µM, first compound 0.003 µM): 22.9% | viability, T/C (second compound 0.316 µM, first compound 0.00949 µM): 2.66% | viability, T/C (second compound 0.316 µM, first compound 0.03 µM): 3.45% | viability, T/C (second compound 0.316 µM, first compound 0.0949 µM): 3.14% | viability, T/C (second compound 0.316 µM, first compound 0.3 µM): 2.44% | viability, T/C (second compound 1 µM, first compound 0.000949 µM): 123% | viability, T/C (second compound 1 µM, first compound 0.003 µM): 23.5% | viability, T/C (second compound 1 µM, first compound 0.00949 µM): 1.76% | viability, T/C (second compound 1 µM, first compound 0.03 µM): 2.42% | viability, T/C (second compound 1 µM, first compound 0.0949 µM): 1.86% | viability, T/C (second compound 1 µM, first compound 0.3 µM): 3.98% | viability, T/C (second compound 3.16 µM, first compound 0.000949 µM): 80.2% | viability, T/C (second compound 3.16 µM, first compound 0.003 µM): 13.3% | viability, T/C (second compound 3.16 µM, first compound 0.00949 µM): 3.01% | viability, T/C (second compound 3.16 µM, first compound 0.03 µM): 2.25% | viability, T/C (second compound 3.16 µM, first compound 0.0949 µM): 2.47% | viability, T/C (second compound 3.16 µM, first compound 0.3 µM): 1.67% | viability, T/C (second compound 10 µM, first compound 0.000949 µM): 122% | viability, T/C (second compound 10 µM, first compound 0.003 µM): 10.3% | viability, T/C (second compound 10 µM, first compound 0.00949 µM): 1.69% | viability, T/C (second compound 10 µM, first compound 0.03 µM): 2.43% | viability, T/C (second compound 10 µM, first compound 0.0949 µM): 2.25% | viability, T/C (second compound 10 µM, first compound 0.3 µM): 1.87%

IC50 (curve of compound): > 100 nM
SMILES: Cn1ncnc1C1c2n[nH]c(=O)c3cc(F)cc(c23)NC1c1ccc(F)cc1 (stereo not drawn)
viability, T/C (compound 0.000316 µM): 105% (2×) and 85.5% | viability, T/C (compound 0.001 µM): 111% and 107% and 106% | viability, T/C (compound 0.00316 µM): 103% and 101% and 76.3% | viability, T/C (compound 0.01 µM): 97.2% and 91.8% and 87.1% | viability, T/C (compound 0.0316 µM): 82.2% and 83.4% and 63.1% | viability, T/C (compound 0.1 µM): 75.4% and 77% and 89.1%

IC50 (curve of compound): 7.45 nM and 7.16 nM and 1.43 nM
SMILES: CC(C)CC(NC(=O)C(Cc1ccccc1)NC(=O)c1cnccn1)B(O)O (stereo not drawn)
viability, T/C (compound 0.000949 µM): 97.1% and 98.4% and 72.1% | viability, T/C (compound 0.003 µM): 105% and 94.3% and 10.1% | viability, T/C (compound 0.03 µM): 0.36% and 0.18% and 1.33% | viability, T/C (compound 0.0949 µM): 0.25% and 0.13% and 2.71% | viability, T/C (compound 0.3 µM): 0.36% and 0.19% and 3.19%
